From US12440496B2, “Natriuretic peptide receptor a agonists useful for the treatment of cardiometabolic diseases, kidney disease and diabetes” (Merck Sharp & Dohme LLC, priority 2019, dated 2025) come the findings set out here.

As a reminder, the EC50 is the concentration that produces a half-maximal response.

Where a name gives a salt, the structure may show the parent alone.

The target in the assay is T1, hNPRA (Homo sapiens, UniProt P16066).
T1 construct: expressed in transfected cells
T1 sequence (P16066 33-1061): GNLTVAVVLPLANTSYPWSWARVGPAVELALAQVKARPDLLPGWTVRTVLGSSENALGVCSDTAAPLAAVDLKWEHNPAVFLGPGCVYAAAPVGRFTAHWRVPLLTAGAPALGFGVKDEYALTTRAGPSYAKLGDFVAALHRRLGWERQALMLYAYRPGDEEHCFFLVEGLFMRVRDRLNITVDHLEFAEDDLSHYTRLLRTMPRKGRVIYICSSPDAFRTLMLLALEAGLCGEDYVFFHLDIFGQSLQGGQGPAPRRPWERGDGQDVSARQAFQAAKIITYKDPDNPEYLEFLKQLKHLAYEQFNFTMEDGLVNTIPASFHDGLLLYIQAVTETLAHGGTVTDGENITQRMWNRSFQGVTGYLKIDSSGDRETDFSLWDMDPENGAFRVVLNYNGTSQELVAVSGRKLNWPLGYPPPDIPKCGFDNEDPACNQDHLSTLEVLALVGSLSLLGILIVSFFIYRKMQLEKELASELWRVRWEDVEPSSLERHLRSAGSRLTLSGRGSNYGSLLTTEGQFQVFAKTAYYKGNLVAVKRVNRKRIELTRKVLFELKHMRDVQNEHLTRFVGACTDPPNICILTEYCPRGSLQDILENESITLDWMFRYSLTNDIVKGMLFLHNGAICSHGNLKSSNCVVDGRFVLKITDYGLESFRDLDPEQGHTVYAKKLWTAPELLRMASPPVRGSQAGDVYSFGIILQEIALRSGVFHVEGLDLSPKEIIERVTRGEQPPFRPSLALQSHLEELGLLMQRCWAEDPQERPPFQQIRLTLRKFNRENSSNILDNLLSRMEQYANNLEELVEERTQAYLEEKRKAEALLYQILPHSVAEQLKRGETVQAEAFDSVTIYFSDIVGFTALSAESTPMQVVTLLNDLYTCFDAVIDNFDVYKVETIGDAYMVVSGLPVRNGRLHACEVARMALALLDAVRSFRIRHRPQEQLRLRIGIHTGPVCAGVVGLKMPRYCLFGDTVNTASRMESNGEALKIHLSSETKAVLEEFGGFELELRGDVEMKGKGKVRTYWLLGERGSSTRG
The experiment in a line: NPRA Functional Cell Assay (cGMP HTRF, NPRA HEK JumpIn stable cells). Type of assay: cell-based. Particulars: cGMP production, 1 hour at 37° C., 10-point dose response. The method, boiled down: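 cGMP HTRF read-out after 1 hour compound treatment at 37° C. of human NPRA-expressing HEK JumpIn cells, 1500 cells/well, in buffer with phosphodiesterase inhibitors IBMX and RO20 (100 uM each). Signal converted to [cGMP] by calibration curve; EC50s fitted by 4-parameter logistic; 50 nM h-ANP as positive response.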
A general note: Time-resolved FRET reads energy transfer from a long-lived donor to a nearby acceptor.
On to `CC(C)(C)[C@H]1CCc2nc3sc(C(=O)N[C@H](CCN4CC[C@@H](C(=O)O)[C@@H](F)C4)c4ccc(-c5cnc(O)c(F)c5)cc4)nc3cc2C1` (racemic) [Example 201, rac-(3R,4S)-3-fluoro-1-[rac-(3R)-3-[4-(5-fluoro-6-hydroxy-3-pyridyl)phenyl]-3-[[rac-(7S)-7-tert-butyl-5,6,7,8-tetrahydrothiazolo[5,4-b]quinoline-2-carbonyl]amino]propyl]piperidin-1-ium-4-carboxylic acid; formate], for which a half-maximal effect (EC50) was put at 447 nM.
The same measure for `CCN(CC)CC[C@@H](NC(=O)c1nc2cc3c(nc2s1)CC[C@H](C(C)(C)C)C3)c1ccc(-c2cnc(O)c(F)c2)cc1` (racemic) [Example 202, diethyl-[rac-(3R)-3-[4-(5-fluoro-6-hydroxy-3-pyridyl)phenyl]-3-[[rac-(7S)-7-tert-butyl-5,6,7,8-tetrahydrothiazolo[5,4-b]quinoline-2-carbonyl]amino]propyl]ammonium; formate]: 514 nM.
The compound `CC(C)(C)[C@H]1CCc2nc3sc(C(=O)N[C@H](CCN4CC[C@H](C(=O)O)[C@@H](F)C4)c4ccc(-c5cnc(O)c(F)c5)cc4)nc3cc2C1` (racemic) [Example 203, rac-(3R,4R)-3-fluoro-1-[rac-(3R)-3-[4-(5-fluoro-6-hydroxy-3-pyridyl)phenyl]-3-[[rac-(7S)-7-tert-butyl-5,6,7,8-tetrahydrothiazolo[5,4-b]quinoline-2-carbonyl]amino]propyl]piperidin-1-ium-4-carboxylic acid; formate] yielded an EC50 of 1190 nM.
To `CC(C)(C)[C@H]1CCc2nc3sc(C(=O)N[C@H](CCN4CCC5OCCCC5C4)c4ccc(-c5cnc(O)c(F)c5)cc4)nc3cc2C1` (mixture of isomers) [Example 204, rac-(7S)-7-tert-butyl-N-[rac-(1R)-3-(3,4,4a,5,6,7,8,8a-octahydro-2H-pyrano[3,2-c]pyridin-6-ium-6-yl)-1-[4-(5-fluoro-6-hydroxy-3-pyridyl)phenyl]propyl]-5,6,7,8-tetrahydrothiazolo[5,4-b]quinoline-2-carboxamide; formate] belongs 1290 nM; to `CN(C)S(=O)(=O)Nc1ccc([C@@H](CCN2CCCOCC2)NC(=O)c2nc3cc4c(nc3s2)CC[C@H](C(C)(C)C)C4)cn1` (racemic) [Example 205, rac-(7S)-7-tert-butyl-N-[rac-(1R)-1-[6-(dimethylsulfamoylamino)-3-pyridyl]-3-(1,4-oxazepan-4-ium-4-yl)propyl]-5,6,7,8-tetrahydrothiazolo[5,4-b]quinoline-2-carboxamide; 2,2,2-trifluoroacetate], 563 nM.
To `CN(CCO)CC[C@@H](NC(=O)c1nc2cc3c(nc2s1)CC[C@H](C(C)(C)C)C3)c1ccc(NS(=O)(=O)N(C)C)nc1` (racemic) [Example 206, 2-hydroxyethyl-methyl-[rac-(3R)-3-[6-(dimethylsulfamoylamino)-3-pyridyl]-3-[[rac-(7S)-7-tert-butyl-5,6,7,8-tetrahydrothiazolo[5,4-b]quinoline-2-carbonyl]amino]propyl]ammonium; 2,2,2-trifluoroacetate] belongs 674 nM; to `O=C(O)C(F)(F)F.[2H]C([2H])([2H])N(CC[C@@H](NC(=O)c1nc2cc3c(nc2s1)CC[C@H](C(C)(C)C)C3)c1ccc(NS(=O)(=O)N(C)C)nc1)C([2H])([2H])[2H]` (racemic) [Example 207, [rac-(3R)-3-[6-(dimethylsulfamoylamino)-3-pyridyl]-3-[[rac-(7S)-7-tert-butyl-5,6,7,8-tetrahydrothiazolo[5,4-b]quinoline-2-carbonyl]amino]propyl]-bis(trideuteriomethyl)ammonium; 2,2,2-trifluoroacetate], 679 nM; to `CN(C)S(=O)(=O)Nc1ccc([C@@H](CCN2CC=CCC2)NC(=O)c2nc3cc4c(nc3s2)CC[C@H](C(C)(C)C)C4)cn1` (racemic) [Example 208, rac-(7S)-7-tert-butyl-N-[rac-(1R)-1-[6-(dimethylsulfamoylamino)-3-pyridyl]-3-(1,2,3,6-tetrahydropyridin-1-ium-1-yl)propyl]-5,6,7,8-tetrahydrothiazolo[5,4-b]quinoline-2-carboxamide; 2,2,2-trifluoroacetate], 712 nM.
Take `CN(CC[C@@H](NC(=O)c1nc2cc3c(nc2s1)CC[C@H](C(C)(C)C)C3)c1ccc(NS(=O)(=O)N(C)C)nc1)CC1(O)CC1` (racemic) [Example 209, (1-hydroxycyclopropyl)methyl-methyl-[rac-(3R)-3-[6-(dimethylsulfamoylamino)-3-pyridyl]-3-[[rac-(7S)-7-tert-butyl-5,6,7,8-tetrahydrothiazolo[5,4-b]quinoline-2-carbonyl]amino]propyl]ammonium; 2,2,2-trifluoroacetate]: the response was half-maximal at 735 nM (EC50).
`COCCN(C)CC[C@@H](NC(=O)c1nc2cc3c(nc2s1)CC[C@H](C(C)(C)C)C3)c1ccc(NS(=O)(=O)N(C)C)nc1` (racemic) [Example 210, 2-methoxyethyl-methyl-[rac-(3R)-3-[6-(dimethylsulfamoylamino)-3-pyridyl]-3-[rac-(7S)-7-tert-butyl-5,6,7,8-tetrahydrothiazolo[5,4-b]quinoline-2-carbonyl]amino]propyl]ammonium; 2,2,2-trifluoroacetate] had an EC50 of 764 nM.
As for `CN(C)S(=O)(=O)Nc1ccc([C@@H](CCN2CC[C@@H](O)C2)NC(=O)c2nc3cc4c(nc3s2)CC[C@H](C(C)(C)C)C4)cn1` (racemic) [Example 211, rac-(7S)-7-tert-butyl-N-[rac-(1R)-1-[6-(dimethylsulfamoylamino)-3-pyridyl]-3-[rac-(3R)-3-hydroxypyrrolidin-1-ium-1-yl]propyl]-5,6,7,8-tetrahydrothiazolo[5,4-b]quinoline-2-carboxamide; 2,2,2-trifluoroacetate], the EC50 was 764 nM.
To `CC(C)CN(C)CC[C@@H](NC(=O)c1nc2cc3c(nc2s1)CC[C@H](C(C)(C)C)C3)c1ccc(NS(=O)(=O)N(C)C)nc1` (racemic) [Example 212, isobutyl-methyl-[rac-(3R)-3-[6-(dimethylsulfamoylamino)-3-pyridyl]-3-[rac-(7S)-7-tert-butyl-5,6,7,8-tetrahydrothiazolo[5,4-b]quinoline-2-carbonyl]amino]propyl]ammonium; 2,2,2-trifluoroacetate] belongs 986 nM; to `CN(C)S(=O)(=O)Nc1ccc([C@@H](CCN2CC[C@H]2CO)NC(=O)c2nc3cc4c(nc3s2)CC[C@H](C(C)(C)C)C4)cn1` (racemic) [Example 213, rac-(7S)-7-tert-butyl-N-[rac-(1R)-1-[6-(dimethylsulfamoylamino)-3-pyridyl]-3-[rac-(2S)-2-(hydroxymethyl)azetidin-1-ium-1-yl]propyl]-5,6,7,8-tetrahydrothiazolo[5,4-b]quinoline-2-carboxamide; 2,2,2-trifluoroacetate], 1010 nM; to `CN(CC[C@@H](NC(=O)c1nc2cc3c(nc2s1)CC[C@H](C(C)(C)C)C3)c1ccc(NS(=O)(=O)N(C)C)nc1)Cc1ccn[nH]1` (racemic) [Example 214, methyl-(1H-pyrazol-5-ylmethyl)-[rac-(3R)-3-[6-(dimethylsulfamoylamino)-3-pyridyl]-3-[rac-(7S)-7-tert-butyl-5,6,7,8-tetrahydrothiazolo[5,4-b]quinoline-2-carbonyl]amino]propyl]ammonium; 2,2,2-trifluoroacetate], 1240 nM.
Regarding `CN(C)S(=O)(=O)Nc1ccc([C@@H](CCN2CCNC(=O)CC2)NC(=O)c2nc3cc4c(nc3s2)CC[C@H](C(C)(C)C)C4)cn1` (racemic) [Example 215, rac-(7S)-7-tert-butyl-N-[rac-(1R)-1-[6-(dimethylsulfamoylamino)-3-pyridyl]-3-(5-oxo-1,4-diazepan-1-ium-1-yl)propyl]-5,6,7,8-tetrahydrothiazolo[5,4-b]quinoline-2-carboxamide; 2,2,2-trifluoroacetate], the EC50 was 1610 nM.
Compound `CC(C)(C)[C@H]1CCc2nc3sc(C(=O)N[C@H](CCN4CCC(O)CC4)c4ccc(-c5c[nH]c(=O)c(F)c5)cc4)nc3cc2C1` [Example 82, (7S)-7-tert-butyl-N-[(1R)-1-[4-(5-fluoro-6-hydroxy-3-pyridyl)phenyl]-3-(4-hydroxy-1-piperidyl)propyl]-5,6,7,8-tetrahydrothiazolo[5,4-b]quinoline-2-carboxamide] returned a concentration giving a half-maximal response (EC50) of 196 nM.
